This note sets out measurements from paper PMC10470521, “Structural basis of a bi-functional malonyl-CoA reductase (MCR) from the photosynthetic green non-sulfur bacterium Roseiflexus castenholzii” (mBio, 2023).

Data set [1] addresses T1, full-length RfxMCR (Roseiflexus castenholzii, UniProt A7NN59, Y749A).
T1 construct: gene Rcas_2929; full length Met1-Val1229, C-terminal His6 tag (pET20b), E. coli BL21(DE3); homodimer ~270 kDa
The data set is described as follows: NADPH oxidation at […] nm. Format: biochemical. The settings on record: 0.4 mM NADPH, 5 mM MgCl2, 100 mM Tris-HCl pH 8.0, 150 mM NaCl, 50°C; apparent; overall two-step reduction.

Data set [2] addresses T2, full-length RfxMCR (Roseiflexus castenholzii, UniProt A7NN59, Y178A).
T2 construct: gene Rcas_2929; full length Met1-Val1229, C-terminal His6 tag (pET20b), E. coli BL21(DE3); homodimer ~270 kDa
The data set is described as follows: NADPH oxidation at […] nm. Format: biochemical. The conditions noted are these: 0.4 mM NADPH, 5 mM MgCl2, 100 mM Tris-HCl pH 8.0, 150 mM NaCl, 50°C; apparent; overall two-step reduction.

For data set [3], the target named is T3, full-length RfxMCR (Roseiflexus castenholzii, UniProt A7NN59, T165A).
T3 construct: gene Rcas_2929; full length Met1-Val1229, C-terminal His6 tag (pET20b), E. coli BL21(DE3); homodimer ~270 kDa
The data set is described as follows: NADPH oxidation at […] nm. Format: biochemical. The conditions noted are these: 0.4 mM NADPH, 5 mM MgCl2, 100 mM Tris-HCl pH 8.0, 150 mM NaCl, 50°C; apparent; overall two-step reduction; SDR1 site (second step, MSA to 3-HP).

For data set [4], the target named is T4, full-length RfxMCR (Roseiflexus castenholzii, UniProt A7NN59, K182A).
T4 construct: gene Rcas_2929; full length Met1-Val1229, C-terminal His6 tag (pET20b), E. coli BL21(DE3); homodimer ~270 kDa
T4 sequence (A7NN59 entry or part of it K182A): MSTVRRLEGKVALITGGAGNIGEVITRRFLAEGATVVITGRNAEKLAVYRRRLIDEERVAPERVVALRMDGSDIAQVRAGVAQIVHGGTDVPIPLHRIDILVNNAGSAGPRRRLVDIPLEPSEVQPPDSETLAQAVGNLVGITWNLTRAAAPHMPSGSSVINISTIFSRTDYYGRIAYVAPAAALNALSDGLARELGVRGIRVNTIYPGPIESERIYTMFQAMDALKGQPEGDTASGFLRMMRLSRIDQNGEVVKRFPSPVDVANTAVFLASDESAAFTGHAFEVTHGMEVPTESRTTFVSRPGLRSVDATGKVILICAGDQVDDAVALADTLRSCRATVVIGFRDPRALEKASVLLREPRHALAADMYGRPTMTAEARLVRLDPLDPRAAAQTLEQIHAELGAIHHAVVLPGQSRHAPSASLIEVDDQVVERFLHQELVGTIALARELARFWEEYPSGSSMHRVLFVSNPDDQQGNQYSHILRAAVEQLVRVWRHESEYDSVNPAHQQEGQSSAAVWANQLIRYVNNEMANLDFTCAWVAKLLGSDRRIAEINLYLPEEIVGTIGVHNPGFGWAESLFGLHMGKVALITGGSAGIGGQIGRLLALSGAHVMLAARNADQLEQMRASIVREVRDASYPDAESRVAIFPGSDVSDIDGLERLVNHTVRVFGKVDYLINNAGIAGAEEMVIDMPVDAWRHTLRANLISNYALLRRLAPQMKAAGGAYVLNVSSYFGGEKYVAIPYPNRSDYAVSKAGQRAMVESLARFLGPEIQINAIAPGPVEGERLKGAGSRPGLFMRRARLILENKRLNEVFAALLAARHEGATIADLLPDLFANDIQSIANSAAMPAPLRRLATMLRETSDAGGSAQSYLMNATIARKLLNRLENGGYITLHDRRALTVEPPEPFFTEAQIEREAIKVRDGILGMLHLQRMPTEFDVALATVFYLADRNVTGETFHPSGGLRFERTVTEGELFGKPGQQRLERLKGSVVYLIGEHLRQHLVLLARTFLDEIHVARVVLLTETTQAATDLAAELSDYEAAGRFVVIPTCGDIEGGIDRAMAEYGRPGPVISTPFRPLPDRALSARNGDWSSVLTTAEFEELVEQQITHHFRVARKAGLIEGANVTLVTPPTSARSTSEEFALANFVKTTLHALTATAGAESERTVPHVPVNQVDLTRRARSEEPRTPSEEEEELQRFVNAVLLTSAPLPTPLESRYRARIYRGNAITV
The data set is described as follows: NADPH oxidation at […] nm. The settings on record: 0.4 mM NADPH, 5 mM MgCl2, 100 mM Tris-HCl pH 8.0, 150 mM NaCl, 50°C; apparent; overall two-step reduction. Format: biochemical.

Data set [5] addresses T5, full-length RfxMCR (Roseiflexus castenholzii, UniProt A7NN59, S731A).
T5 construct: gene Rcas_2929; full length Met1-Val1229, C-terminal His6 tag (pET20b), E. coli BL21(DE3); homodimer ~270 kDa
The data set is described as follows: NADPH oxidation at […] nm. Format: biochemical. The settings on record: 0.4 mM NADPH, 5 mM MgCl2, 100 mM Tris-HCl pH 8.0, 150 mM NaCl, 50°C; apparent; overall two-step reduction; SDR3 site.

The target in data set [6] is T6, full-length RfxMCR (Roseiflexus castenholzii, UniProt A7NN59, R746A).
T6 construct: gene Rcas_2929; full length Met1-Val1229, C-terminal His6 tag (pET20b), E. coli BL21(DE3); homodimer ~270 kDa
The data set is described as follows: NADPH oxidation at […] nm. Format: biochemical. The conditions noted are these: 0.4 mM NADPH, 5 mM MgCl2, 100 mM Tris-HCl pH 8.0, 150 mM NaCl, 50°C; apparent; overall two-step reduction; SDR3 site.

The target of data set [7] is T7, full-length RfxMCR (Roseiflexus castenholzii, UniProt A7NN59, L795A).
T7 construct: gene Rcas_2929; full length Met1-Val1229, C-terminal His6 tag (pET20b), E. coli BL21(DE3); homodimer ~270 kDa
T7 sequence (A7NN59 entry or part of it L795A): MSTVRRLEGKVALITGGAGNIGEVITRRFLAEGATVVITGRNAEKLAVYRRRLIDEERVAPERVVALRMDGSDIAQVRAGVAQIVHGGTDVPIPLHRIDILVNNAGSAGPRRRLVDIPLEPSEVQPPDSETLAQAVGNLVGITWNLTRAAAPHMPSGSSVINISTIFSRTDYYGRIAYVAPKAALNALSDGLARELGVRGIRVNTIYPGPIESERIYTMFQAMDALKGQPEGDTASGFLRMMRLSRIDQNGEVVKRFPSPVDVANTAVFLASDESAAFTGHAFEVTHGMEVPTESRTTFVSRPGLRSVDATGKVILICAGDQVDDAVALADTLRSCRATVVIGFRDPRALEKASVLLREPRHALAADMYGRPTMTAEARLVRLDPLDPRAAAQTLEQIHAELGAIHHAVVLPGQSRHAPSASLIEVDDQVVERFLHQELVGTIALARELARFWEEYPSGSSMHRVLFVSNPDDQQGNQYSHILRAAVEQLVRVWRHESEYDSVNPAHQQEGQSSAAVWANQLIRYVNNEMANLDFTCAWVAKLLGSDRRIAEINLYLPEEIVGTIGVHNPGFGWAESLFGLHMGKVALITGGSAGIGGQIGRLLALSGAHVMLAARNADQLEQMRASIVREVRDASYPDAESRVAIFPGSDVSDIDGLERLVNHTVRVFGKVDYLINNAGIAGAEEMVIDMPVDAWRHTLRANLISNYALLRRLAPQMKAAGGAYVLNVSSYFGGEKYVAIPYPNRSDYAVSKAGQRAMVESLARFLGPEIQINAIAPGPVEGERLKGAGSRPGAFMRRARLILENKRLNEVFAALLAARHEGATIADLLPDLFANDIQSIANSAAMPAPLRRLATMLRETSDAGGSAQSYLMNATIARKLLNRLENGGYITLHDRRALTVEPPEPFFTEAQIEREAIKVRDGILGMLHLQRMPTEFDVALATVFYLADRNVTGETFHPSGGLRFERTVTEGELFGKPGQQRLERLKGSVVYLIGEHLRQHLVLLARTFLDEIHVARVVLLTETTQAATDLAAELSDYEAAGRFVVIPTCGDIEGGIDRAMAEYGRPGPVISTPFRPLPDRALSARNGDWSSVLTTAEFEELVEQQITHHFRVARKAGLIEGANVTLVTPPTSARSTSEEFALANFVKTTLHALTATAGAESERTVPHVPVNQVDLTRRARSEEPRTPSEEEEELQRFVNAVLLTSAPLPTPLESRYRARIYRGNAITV
The data set is described as follows: NADPH oxidation at […] nm. Format: biochemical. The conditions noted are these: 0.4 mM NADPH, 5 mM MgCl2, 100 mM Tris-HCl pH 8.0, 150 mM NaCl, 50°C; apparent; overall two-step reduction.

Data set [8] addresses T8, full-length RfxMCR (Roseiflexus castenholzii, UniProt A7NN59, R785A).
T8 construct: gene Rcas_2929; full length Met1-Val1229, C-terminal His6 tag (pET20b), E. coli BL21(DE3); homodimer ~270 kDa
The data set is described as follows: NADPH oxidation at […] nm. Format: biochemical. The settings on record: 0.4 mM NADPH, 5 mM MgCl2, 100 mM Tris-HCl pH 8.0, 150 mM NaCl, 50°C; apparent; overall two-step reduction; extra domain.

Data set [9] addresses T9, full-length RfxMCR (Roseiflexus castenholzii, UniProt A7NN59, K753A).
T9 construct: gene Rcas_2929; full length Met1-Val1229, C-terminal His6 tag (pET20b), E. coli BL21(DE3); homodimer ~270 kDa
The data set is described as follows: NADPH oxidation at […] nm. Format: biochemical. The settings on record: 0.4 mM NADPH, 5 mM MgCl2, 100 mM Tris-HCl pH 8.0, 150 mM NaCl, 50°C; apparent; overall two-step reduction.

The target of data set [10] is T10, full-length RfxMCR (Roseiflexus castenholzii, UniProt A7NN59, R799A).
T10 construct: gene Rcas_2929; full length Met1-Val1229, C-terminal His6 tag (pET20b), E. coli BL21(DE3); homodimer ~270 kDa
T10 sequence (A7NN59 entry or part of it R799A): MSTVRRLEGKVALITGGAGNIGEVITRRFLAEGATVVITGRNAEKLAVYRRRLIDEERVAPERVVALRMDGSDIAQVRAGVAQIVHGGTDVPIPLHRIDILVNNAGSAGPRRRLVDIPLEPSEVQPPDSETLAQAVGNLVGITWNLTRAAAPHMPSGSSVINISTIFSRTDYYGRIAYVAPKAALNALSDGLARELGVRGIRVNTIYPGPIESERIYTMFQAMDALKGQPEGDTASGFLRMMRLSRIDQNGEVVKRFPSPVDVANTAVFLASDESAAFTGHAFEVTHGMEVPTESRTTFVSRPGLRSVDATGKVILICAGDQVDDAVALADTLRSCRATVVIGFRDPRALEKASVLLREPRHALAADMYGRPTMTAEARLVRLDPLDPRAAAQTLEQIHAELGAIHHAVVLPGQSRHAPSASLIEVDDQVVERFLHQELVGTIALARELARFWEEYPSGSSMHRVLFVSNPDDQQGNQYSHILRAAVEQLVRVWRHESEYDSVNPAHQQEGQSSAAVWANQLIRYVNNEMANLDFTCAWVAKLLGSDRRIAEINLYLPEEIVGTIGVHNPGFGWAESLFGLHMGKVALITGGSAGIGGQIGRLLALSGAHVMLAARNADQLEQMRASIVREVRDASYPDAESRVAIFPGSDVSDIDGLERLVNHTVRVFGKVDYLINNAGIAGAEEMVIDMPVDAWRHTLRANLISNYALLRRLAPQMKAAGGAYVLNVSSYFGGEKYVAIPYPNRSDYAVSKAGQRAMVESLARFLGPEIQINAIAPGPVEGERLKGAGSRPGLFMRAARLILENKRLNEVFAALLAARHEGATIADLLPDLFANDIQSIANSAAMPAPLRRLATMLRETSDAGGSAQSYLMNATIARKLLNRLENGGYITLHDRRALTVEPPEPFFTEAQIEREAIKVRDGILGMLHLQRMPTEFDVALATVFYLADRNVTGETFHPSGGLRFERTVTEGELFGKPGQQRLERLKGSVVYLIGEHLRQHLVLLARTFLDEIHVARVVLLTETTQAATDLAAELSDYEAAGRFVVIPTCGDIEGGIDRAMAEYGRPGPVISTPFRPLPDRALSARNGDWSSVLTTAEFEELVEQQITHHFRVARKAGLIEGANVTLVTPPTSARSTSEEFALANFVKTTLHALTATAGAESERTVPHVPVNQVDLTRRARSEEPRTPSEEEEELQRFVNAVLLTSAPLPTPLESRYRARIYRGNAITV
The data set is described as follows: NADPH oxidation at […] nm. The settings on record: 0.4 mM NADPH, 5 mM MgCl2, 100 mM Tris-HCl pH 8.0, 150 mM NaCl, 50°C; apparent; overall two-step reduction; extra domain. Format: biochemical.

A further data set deals with T11, RfxMCR-C (Roseiflexus castenholzii, UniProt A7NN59).
T11 construct: gene Rcas_2929; C-terminal fragment Gly573-Val1229 (SDR3-ED-SDR4), N-terminal His6 tag (pET28a), E. coli BL21(DE3)
The data set is described as follows: X-ray crystal structure, […] Å. Format: binding. The conditions noted are these: ternary complex with NADP+; SDR3 / ED interface; MSA not added, modelled in density.

The target of a further data set is T12, RfxMCR-N (Roseiflexus castenholzii, UniProt A7NN59).
T12 construct: gene Rcas_2929; N-terminal fragment Met1-Phe572 (SDR1-SDR2), C-terminal His6 tag (pET28a), E. coli BL21(DE3)
The data set is described as follows: X-ray crystal structure, […] Å. Format: binding. The settings on record: ternary complex with NADP+; SDR1 site; MSA not added, modelled in extra density; crystals grown in 1 M sodium malonate pH 5.0.

Data set [11] deals with the molecule itself. The data set is described as follows: crystal structure; RfxMCR-N with NADP+ and MSA; 1 M sodium malonate pH 5.0, 0.1 M sodium acetate pH 4.5, 3% PEG 20,000, 16°C; P6(5)22, one monomer in the asymmetric unit, dimer by crystal packing; 2.0 Å.

T8 sequence (A7NN59 entry or part of it R785A): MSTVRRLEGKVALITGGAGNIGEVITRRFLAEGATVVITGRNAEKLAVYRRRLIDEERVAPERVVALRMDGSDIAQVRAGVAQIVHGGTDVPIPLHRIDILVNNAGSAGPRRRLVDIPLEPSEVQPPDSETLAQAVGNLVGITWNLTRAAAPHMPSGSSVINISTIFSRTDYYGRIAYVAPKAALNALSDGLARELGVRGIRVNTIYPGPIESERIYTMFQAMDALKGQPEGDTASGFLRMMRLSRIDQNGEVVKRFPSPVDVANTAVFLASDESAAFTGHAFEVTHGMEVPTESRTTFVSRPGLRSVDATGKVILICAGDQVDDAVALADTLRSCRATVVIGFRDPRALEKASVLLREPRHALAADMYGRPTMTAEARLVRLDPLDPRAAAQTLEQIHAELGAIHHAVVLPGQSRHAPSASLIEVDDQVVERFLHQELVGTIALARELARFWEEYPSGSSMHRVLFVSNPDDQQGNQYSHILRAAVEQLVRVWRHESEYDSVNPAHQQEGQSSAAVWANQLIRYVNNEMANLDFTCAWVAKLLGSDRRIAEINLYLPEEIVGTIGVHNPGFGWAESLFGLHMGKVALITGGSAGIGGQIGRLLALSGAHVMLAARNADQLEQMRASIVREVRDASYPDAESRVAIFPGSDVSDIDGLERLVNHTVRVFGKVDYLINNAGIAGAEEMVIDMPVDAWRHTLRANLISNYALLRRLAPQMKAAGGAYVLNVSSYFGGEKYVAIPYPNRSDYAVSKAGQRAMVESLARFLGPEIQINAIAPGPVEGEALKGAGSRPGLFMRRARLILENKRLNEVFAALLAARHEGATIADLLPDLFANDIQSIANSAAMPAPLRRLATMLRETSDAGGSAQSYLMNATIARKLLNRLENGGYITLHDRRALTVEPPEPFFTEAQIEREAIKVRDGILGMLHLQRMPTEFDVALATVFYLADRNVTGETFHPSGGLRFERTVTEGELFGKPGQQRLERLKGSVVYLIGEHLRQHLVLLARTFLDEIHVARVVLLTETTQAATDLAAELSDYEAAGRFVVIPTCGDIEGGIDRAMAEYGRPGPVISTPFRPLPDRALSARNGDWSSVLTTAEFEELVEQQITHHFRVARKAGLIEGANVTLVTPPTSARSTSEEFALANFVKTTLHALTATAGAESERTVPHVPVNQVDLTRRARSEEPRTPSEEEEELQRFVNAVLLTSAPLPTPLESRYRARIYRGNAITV
T1 sequence (A7NN59 entry or part of it Y749A): as the sequence (A7NN59 entry or part of it R799A) above, with Y749A, A799R counted along it
T9 sequence (A7NN59 entry or part of it K753A): as the sequence (A7NN59 entry or part of it R799A) above, with K753A, A799R counted along it

For the molecule `CC(C)(COP(=O)(O)OP(=O)(O)OC[C@H]1O[C@@H](n2cnc3c(N)ncnc32)[C@H](O)[C@@H]1OP(=O)(O)O)[C@@H](O)C(=O)NCCC(=O)NCCSC(=O)CC(=O)O` [malonyl-CoA], the overall enzymatic activity entry on full-length RfxMCR [1] is “Ser731, Tyr749, Lys753, and Arg799 completely eliminated enzymatic activity”; on full-length RfxMCR [2], “Site-directed mutation of Thr165, Tyr172, Arg175, Tyr178, and Lys182 to Ala residues”; on full-length RfxMCR [3] it was “Site-directed mutation of Thr165, Tyr172, Arg175, Tyr178, and Lys182 to Ala residues”; at full-length RfxMCR [4] it was “Site-directed mutation of Thr165, Tyr172, Arg175, Tyr178, and Lys182 to Ala residues”; on full-length RfxMCR [5], “Ser731, Tyr749, Lys753, and Arg799 completely eliminated enzymatic activity”; at full-length RfxMCR [6] it was “mutagenesis of Arg746, Arg785, and Leu795”. For the same molecule, the overall enzymatic activity result at full-length RfxMCR [7] was “mutagenesis of Arg746, Arg785, and Leu795”; on full-length RfxMCR [8], “mutagenesis of Arg746, Arg785, and Leu795”; at full-length RfxMCR [9], “Ser731, Tyr749, Lys753, and Arg799 completely eliminated enzymatic activity”; on full-length RfxMCR [10], “Ser731, Tyr749, Lys753, and Arg799 completely eliminated enzymatic activity”.
In the case of `O=CCC(=O)O` [malonate semialdehyde], the “X-ray crystal structure, 2.3 Å” value at RfxMCR-C is “a cofactor NADP^+ and intermediate MSA were resolved at the interface between the SDR3”. In addition, the “X-ray crystal structure, 2.0 Å” value on RfxMCR-N is listed as “extra electron density that precisely matched the reduction intermediate MSA”.

B1: RfxMCR-N (Met1-Phe572) (domain or fragment, Roseiflexus castenholzii DSM 13941, UniProt A7NN59 1-572, looked up)
chain: MSTVRRLEGKVALITGGAGNIGEVITRRFLAEGATVVITGRNAEKLAVYRRRLIDEERVAPERVVALRMDGSDIAQVRAGVAQIVHGGTDVPIPLHRIDILVNNAGSAGPRRRLVDIPLEPSEVQPPDSETLAQAVGNLVGITWNLTRAAAPHMPSGSSVINISTIFSRTDYYGRIAYVAPKAALNALSDGLARELGVRGIRVNTIYPGPIESERIYTMFQAMDALKGQPEGDTASGFLRMMRLSRIDQNGEVVKRFPSPVDVANTAVFLASDESAAFTGHAFEVTHGMEVPTESRTTFVSRPGLRSVDATGKVILICAGDQVDDAVALADTLRSCRATVVIGFRDPRALEKASVLLREPRHALAADMYGRPTMTAEARLVRLDPLDPRAAAQTLEQIHAELGAIHHAVVLPGQSRHAPSASLIEVDDQVVERFLHQELVGTIALARELARFWEEYPSGSSMHRVLFVSNPDDQQGNQYSHILRAAVEQLVRVWRHESEYDSVNPAHQQEGQSSAAVWANQLIRYVNNEMANLDFTCAWVAKLLGSDRRIAEINLYLPEEIVGTIGVHNPGF
notes: malonyl-CoA reductase (MCR) of Roseiflexus castenholzii DSM 13941, gene Rcas_2929, residues Met1-Phe572 (SDR1 and SDR2 domains); Cloned into pET28a at XhoI and NcoI; also called N-terminal fragment; SDR1-SDR2
For the molecule B1, the “stoichiometry N” value in data set [11] came out at 2.
